Data from patent publication US5877174A, “2,3-diketopiperazine derivatives or their salts” (Toyama Chemical Co., Ltd., priority 1994, dated 1999).
Counter-ions that a name gives are not always drawn.

Tested on: ddY strain male mice
Experiment: Acute toxicity (intravenous, mice)
Format: in vivo
Settings: 300 mg/kg, intravenous (tail), physiological saline
Method: A solution of the compound of Example 58 in physiological saline was intravenously administered to a group consisting of 5 ddY strain male mice (average body weight: 27.5 g) each, in the tails, whereby the acute toxicity of the compound was investigated. As a result, no mouse died at a dose of the test compound of 300 mg/kg.

Compound | acute toxicity (mortality)
N=C(N)c1ccc(OCCCN2CCN(C(CC(=O)O)c3cccnc3)C(=O)C2=O)cc1 (stereo not shown) [Example 58, 3-[4-[3-(4-Amidinophenoxy)propyl]-2,3-dioxopiperazin-1-yl]-3-(pyridin-3-yl)propionic acid] | no mouse died

Tested on: human platelet aggregation
Experiment: Inhibitory effect on human platelet aggregation (ADP-induced, platelet-rich plasma, aggreometer)
Format: cell-based
Settings: 5×10^8 platelets/ml, ADP final concentration 3 μM, 37° C., 3 min preincubation, read-out: 50% inhibitory concentration (IC50)
Method: A mixture of blood collected from a human elbow vein and a 3.8% sodium citrate solution in the ratio of 9:1 (v/v) was centrifuged at room temperature to obtain platelet-rich plasma and platelet-poor plasma. Then, the platelet-rich plasma was diluted with the platelet-poor plasma to adjust the number of platelets to 5×10^8 platelets/ml. […] After 3 minutes, 18.75 μl of adenosine 5'-diphosphate (ADP) (final concentration: 3 μM) was added to the mixture and a change in the intensity of transmitted light caused by the aggregation was recorded with the lapse of time with an aggreometer.

Compound | IC50 [nM]
N=C(N)c1ccc(S(=O)(=O)NCCCN2CCN(CC(=O)O)C(=O)C2=O)cc1 [105(2), [4-[3-(4-Amidinobenzenesulfonylamino)propyl]-2,3-dioxopiperazin-1-yl]aceticacid] | 950
N=C(N)c1ccc(OCCCN2CCN(CC(=O)O)C(=O)C2=O)cc1 [Example 10, [4-[3-(4-Amidinophenoxy)propyl]-2,3-dioxopiperazin-1yl]acetic acid hydrochloride] | 5000
N=C(N)c1ccc(OCCCCCN2CCN(CC(=O)O)C(=O)C2=O)cc1 [Example 13] | 10000
N=C(N)c1ccc(OCCCN2CCN(CCC(=O)O)C(=O)C2=O)cc1 [Example 15] | 4700
N=C(N)c1ccc(OCCN2CCN(CCCC(=O)O)C(=O)C2=O)cc1 [Example 16] | 2200
N=C(N)c1ccc(OCCCn2ccn(CC(=O)O)c(=O)c2=O)cc1 [Example 17, [4-[3-(4-Amidinophenoxy)propyl]-1,2,3,4-tetrahydro-2,3-dioxopyrazin-1-yl]acetic acid hydrochloride] | 42000
N=C(N)c1ccc(OCCCCN2CCN(C(C(=O)O)c3ccccc3)C(=O)C2=O)cc1 (stereo not drawn) [Example 19, α-[4-[4-(4-Amidinophenoxy)butyl]-2,3-dioxopiperazin-1yl]-α-phenylacetic acid] | 140
N=C(N)c1ccc(OCCCN2CCN(CC(Cc3ccc4c(c3)OCO4)C(=O)O)C(=O)C2=O)cc1 (stereo not shown) [Example 20, 2-[(1,3-Benzodioxol-5-yl)methyl]-3-[4-[3-(4-amidinophenoxy)propyl]-2,3-dioxopiperazin-1-yl]propionic acid] | 900
N=C(N)c1ccc(OCCCN2CCN(C(CC(=O)O)c3cccnc3)C(=O)C2=O)cc1 (stereo not shown) [Example 58, 3-[4-[3-(4-Amidinophenoxy)propyl]-2,3-dioxopiperazin-1-yl]-3-(pyridin-3-yl)propionic acid] | 54
CC(CC(=O)O)N1CCN(CCCOc2ccc(C(=N)N)cc2)C(=O)C1=O (stereo not shown) [Example 59, 3-[4-[3-(4-Amidinophenoxy)propyl]-2,3-dioxopiperazin-1-yl]-3-methylpropionic acid] | 370
N=C(N)c1ccc(OCCCN2CCN(C(CC(=O)O)c3cccs3)C(=O)C2=O)cc1 (stereo not shown) [Example 61] | 120
N=C(N)c1ccc(OCCCN2CCN(C(CC(=O)O)C(=O)O)C(=O)C2=O)cc1 (stereo not shown) [Example 62, 2-[4-[3-(4-Amidinophenoxy)propyl]-2,3-dioxopiperazin-1-yl]succinic acid] | 3200
COc1ccc(C(CC(=O)O)N2CCN(CCCOc3ccc(C(=N)N)cc3)C(=O)C2=O)cc1 (stereo not shown) [Example 64] | 160
N=C(N)c1ccc(OCCCN2CCN(C(CC(=O)O)c3ccc(F)cc3)C(=O)C2=O)cc1 (stereo not shown) [Example 65] | 290

Other lines, results leading:

IC50 [nM] | Compound
140 | N=C(N)c1ccc(OCCCN2CCN(C(CC(=O)O)c3ccc4c(c3)OCO4)C(=O)C2=O)cc1 (stereo not shown) [Example 66, 3-[4-[3-(4-Amidinophenoxy)propyl]-2,3-dioxopiperazin-1-yl]-3-(1,3-benzodioxol-5-yl)propionic acid]
570 | N=C(N)c1ccc(OCCCN2CCN(C(CC(=O)O)c3ccco3)C(=O)C2=O)cc1 (stereo not shown) [Example 67]
140 | N=C(N)c1ccc(OCCCN2CCN(C(CC(=O)O)c3ccc(F)cc3F)C(=O)C2=O)cc1 (stereo not shown) [Example 77]
150 | COc1cccc(C(CC(=O)O)N2CCN(CCCOc3ccc(C(=N)N)cc3)C(=O)C2=O)c1 (stereo not shown) [Example 78]
3500 | N=C(N)c1ccc(OCCCCN2CCN(C(CC(=O)O)c3cccnc3)C(=O)C2=O)cc1 (stereo not shown) [Example 79, 3-[4-[4-(4-Amidinophenoxy)butyl]-2,3-dioxopiperazin-1-yl]-3-(pyridin-3-yl)propionic acid]
480 | CCCCC(CC(=O)O)N1CCN(CCCOc2ccc(C(=N)N)cc2)C(=O)C1=O (stereo not shown) [Example 82, 3-[4-[3-(4-Amidinophenoxy)propyl]-2,3-dioxopiperazin-1-yl]-3-(butyl)propionic acid]
1100 | N=C(N)c1ccc(OCCCN2CCN(C(CC(=O)O)C3CC3)C(=O)C2=O)cc1 (stereo not shown) [Example 83, 3-[4-[3-(4-Amidinophenoxy)propyl]-2,3-dioxopiperazin-1-yl]-3-(cyclopropyl)propionic acid]
290 | N=C(N)c1ccc(OCCCN2CCN(C(CC(=O)O)c3cccc4ccccc34)C(=O)C2=O)cc1 (stereo not shown) [Example 85]
530 | N=C(N)c1ccc(OCCCN2CCN(CC(C(=O)O)c3ccccc3)C(=O)C2=O)cc1 (stereo not shown) [Example 87, 3-[4-[3-(4-Amidinophenoxy)propyl]-2,3-dioxopiperazin-1-yl]-2-phenylpropionic acid]
3400 | CCOC(=O)CC(c1cccnc1)N1CCN(CCCOc2ccc(C(=N)N)cc2)C(=O)C1=O (stereo not shown) [Example 88, Ethyl 3-[4-[3-(4-amidinophenoxy)propyl]-2,3-dioxopiperazin-1yl]-3-(pyridin-3-yl)propionate hydrochloride]
560 | N=C(N)c1ccc(C(=O)NCCN2CCN(C(CC(=O)O)c3cccnc3)C(=O)C2=O)cc1 (stereo not shown) [Example 97, 3-[4-[2-(4-Amidinobenzoyl)aminoethyl]-2,3-dioxopiperazin-1yl]-3-(pyridin-3-yl)propionic acid]
2100 | N=C(N)c1ccc(C(=O)NCCN2CCN(CCC(=O)O)C(=O)C2=O)cc1 [Example 99]
500 | N=C(N)c1ccc(C(=O)NCCCN2CCN(CC(Cc3ccc4c(c3)OCO4)C(=O)O)C(=O)C2=O)cc1 (stereo not shown) [Example 102, 3-[4-[3-(4-Amidinobenzoylamino)propyl]-2,3-dioxopiperazin-1-yl]-2-[(1,3-benzodioxol-5-yl)methyl]-propionic acid]
1900 | N=C(N)c1ccc(C(=O)NCCN2CCN(CC(=O)O)C(=O)C2=O)cc1 [Example 103, [4-[2-(4-Amidinobenzoylamino)ethyl]-2,3-dioxopiperazin-1-yl]acetic acid]
800 | N=C(N)c1ccc(C(=O)NCCCN2CCN(CC(=O)O)C(=O)C2=O)cc1 [Example 104, [4-[3-(4-Amidinobenzoylamino)propyl)-2,3-dioxopiperazin-1-yl]acetic acid]
1000 | CC(C)(C)OC(=O)CN1CCN(CCCC(=O)Nc2ccc(C(=N)NC(=O)OCc3ccccc3)cc2)C(=O)C1=O [Example 106, tert-Butyl [4-[4-(4-benzyloxycarbonylamidino-phenylamino) -4-oxobutyl]-2,3-dioxopiperazin-1-yl]acetate]
